Results reported in paper PMC11510156, “Rutin and Physalis peruviana Extract: Population Pharmacokinetics in New Zealand Rabbits” (Pharmaceutics, 2024).

Key:
[1] = Noncompartmental PK of rutin after intravenous administration of pure rutin or P. peruviana extract; format: in vivo, New Zealand White rabbits
Protocol: (§1) Twenty male New Zealand White rabbits were obtained from Sentagro E.A.T (Cachipay, Cundinamarca, Colombia), who certificated their origin and traceability. The animals were between 9 and 10 weeks old, weighing between 1.8 and 2.2 kg. They were allowed to acclimate for at least 5 days under constant temperature conditions (22 ± 1 °C), with light/dark cycles of 12 h, at the animal facility of the Department of Pharmacy of the Universidad Nacional de Colombia (UNAL), where the experiments were conducted. They were provided with water and food ad libitum until 12 h prior to the experiment, when they were fasted. The study protocol was approved by the ethics committee of the science faculty of the UNAL (Act 06, 2015, project 40831, 22 June 2015).
(§2) Rabbits were divided into four groups to receive either pure rutin or P. peruviana extract intravenously (i.v.) or orally (p.o.). The dose of rutin i.v. was set at 0.37 mg/kg, based on the highest quantity of the compound able to dissolve in 1 mL of the diluent used. The dose of extract i.v. was 100 mg/kg, a reference dose for animal experimentation in our group, which also allowed the solubilization of rutin in the extract within the administration volume. Oral rutin was administrated at a dose of 100 mg/kg, and oral extract was administrated at a dose of 500 mg/kg, which is an active dose from prior experiments. Based on the rutin content in the extract, the doses of extract used were equivalent to 1.48 mg/kg and 7.4 mg/kg of rutin for the i.v. and p.o. experiments, respectively.
(§3) For intravenous administration, solutions of rutin in sodium chloride solution (0.9% NaCl) were prepared at a concentration of 0.74 mg/mL, using DMSO (<0.1% of the final volume) to dissolve the compound. Meanwhile, the extract was directly dissolved in 0.9% NaCl at a concentration of 200 mg/mL. For oral administration, pure rutin and the extract were suspended in water near the time of the experiment to achieve concentrations in suspension of 200 and 1000 mg/mL, respectively. Vortexing and sonication were applied 3–4 times for 15 min each to all preparations. Each animal received 0.5 mL/kg of the treatment via the marginal ear vein (i.v.) or by oral gavage (p.o.).
(§4) Samples of blood (approximately 250 µL) were withdrawn from the marginal ear vein and collected in heparinized tubes at various time points. For experiments with i.v. administration, sampling was conducted at times 0, 0.083, 0.166, 0.333, 0.5, 0.75, 1, 1.5, 2, 3, 4, 6, 8, 12, and 24 h. For experiments with p.o. administration, sampling was performed at times 0, 0.083, 0.25, […], 0.75, 1, 2, 3, 4, 6, 8, 12, 24, and 48 h (Figure 1). The blood samples were then centrifuged at 3200× g and at 4 °C for 15 min to separate plasma, which was transferred to a new tube. The plasma was promptly acidified to pH 4 using 0.5 µL of 42.5% formic acid and then frozen at −80 °C until further analysis.
(§5) The quantification of analytes was carried out using a validated UHPLC-UV method on a Chromaster RS chromatograph (Hitachi, Tokyo, Japan). Briefly, plasma samples (100 µL) were supplemented with the internal standard, chrysin (1000 ng/mL), and divided into two tubes. One tube was immediately extracted and injected into the chromatographic system to quantify rutin. The plasma in the other tube first underwent a deconjugation reaction with 120 Fishman units of a mixture of the enzymes β-glucuronidase/arylsulfatase at pH 5.5 and 37 °C for 30 min. The product of the reaction, Quer, was also quantified, representing rutin metabolites Q3OG and Q3OS. The analytes in the plasma samples, rutin and Quer, were extracted using the protein precipitation method with twice the volume of methanol; proteins were then separated by centrifugation at 1200× g and 4 °C for 15 min, and the supernatant was used for instrumental analysis.
(§6) Concentrations–time data were tabulated and processed using MonolixSuite™ 2024R1 (Lixoft®, Paris, France). […]

[2] = Noncompartmental PK of rutin after oral administration of pure rutin or P. peruviana extract; format: in vivo, New Zealand White rabbits
Protocol: as §1, §2, §3, §4, §5, §6

[3] = Population PK model of rutin after i.v. administration (two-compartment, first-order elimination); format: in vivo, New Zealand White rabbits
Protocol: PopPK analysis was performed using the Monolix® module of the MonolixSuite™. Two models were established, one for rutin after i.v. administration of the treatments, and one for Quer, produced by deconjugation of Q3OG and Q3OS, after p.o. administration of the treatments. Structural models with one or two compartments and first-order elimination were assessed, incorporating a double first-order absorption for p.o. experiments. An analysis of covariate was conducted, using the source of rutin as categorical covariate (pure compound or extract), which was incorporated into the model if statistically significant (p < 0.05 for Pearson’s and Wald tests with stochastic approximation). Correlations between random effects of the parameters were also examined and included in the model when significant (p < 0.05 for t-test). The final model, along with the residual error model, was chosen based on criteria including individual fit plots, Akaike’s information criteria (AIC) values, observation-versus-prediction plot analysis, precision of estimated parameters, and evaluation of residual distribution. The variability on fixed-effect model parameters was described by Equation (4):(4) Pi=Ppop+β+η(i,p), where Pi is the value of the individual PK parameter, Ppop is the value of the population PK parameter, β represents the variability due to the covariate extract if significant, and η is the individual deviation with respect to the population. Models were parametrized in micro-constants, i.e., elimination rate constant (k), distribution rate constant from compartment 1 to compartment 2 (k12), and distribution rate constant from compartment 2 to compartment 1 (k21). When necessary, Cl was calculated as follows: (5) Cl=k×V, where V is the volume of distribution of first compartment. The model was internally validated through the visual predictive check (VPC) with 1000 simulated data points. Validation of structural, variability, and covariate models was considered achieved if the observed percentiles remained within the corresponding prediction intervals estimated across all simulated data and computed with a level of 90%. In addition, the parameter uncertainty was assayed by bootstrap analysis using 1000 runs. The model was considered stable, robust, and accurate if the mean parameters of the model were close to those estimated via bootstrap and fell within the 95% confidence interval (CI 95%).

[4] = Simple allometry prediction of human V and Cl of rutin; set-up: species or system humans
Source text: Individual pharmacokinetics parameters estimated by PopPK analysis in this study, along with those from a previous study conducted by the group in Wistar rats, were used to extrapolate V and Cl to humans using the simple allometry Equation (6):(6) Y=a×W^b, where Y is the PK parameter in humans, W is the human weight, typically set at 70 kg, and a and b are the coefficient and the exponent of scaling, respectively. These last two values are obtained from the relationship between the PK parameter and body weight across different species. Theoretically, b is fixed to 0.75 for Cl and 1.0 for Vd, although it can vary depending on the drug and population under study.

[5] = set-up: method as in PMID 33921404; details: rutin; popPK, Wistar rats; cited from earlier work
[6] = set-up: method as in PMID 32162346; details: low solubility and low permeability; cited from earlier work
[7] = male, New Zealand White, rabbit, plasma, iv, rutin, pure rutin 0.37 mg/kg, extract equivalent to 1.48 mg/kg of rutin, NCA, mean ± SD, n = 5
[8] = rutin, i.v., pure rutin 0.37 mg/kg, extract equivalent to 1.48 mg/kg of rutin, NCA, mean ± SD, n = 5
[9] = male, New Zealand White, rabbit, plasma, po, rutin, pure rutin 100 mg/kg, extract equivalent to 7.4 mg/kg of rutin, NCA, mean ± SD, n = 5
[10] = male, New Zealand White, rabbit, po, rutin in plasma, pure rutin 100 mg/kg, extract equivalent to 7.4 mg/kg of rutin, NCA, mean ± SD, n = 5
[11] = rutin, p.o., pure rutin 100 mg/kg, extract equivalent to 7.4 mg/kg of rutin, NCA, mean ± SD, n = 5

C[C@@H]1O[C@@H](OC[C@H]2O[C@@H](Oc3c(-c4ccc(O)c(O)c4)oc4cc(O)cc(O)c4c3=O)[C@H](O)[C@@H](O)[C@@H]2O)[C@H](O)[C@H](O)[C@H]1O [Pure Rutin, quercetin-3-O-rutinoside]
time post-dosage up to which rutin was quantified ([1]; i.v.): up to 6 h
rutin plasma level, upper end of quantified range ([1]; i.v., mean ± SEM): 4960 ± 340 ng/mL
AUC(0-inf) ([1]; male, New Zealand White, rabbit, iv, rutin in plasma, pure rutin 0.37 mg/kg, extract equivalent to 1.48 mg/kg of rutin, NCA, mean ± SD, n = 5): 4740 ± 814 ng·h/mL
Vd ([1]; male, New Zealand White, rabbit, plasma, iv, 0.37 mg/kg, rutin, i.v., pure rutin 0.37 mg/kg, extract equivalent to 1.48 mg/kg of rutin, NCA, mean ± SD, n = 5, read-out: Vss): 0.29 ± 0.053 L/kg
Vd ([1]; male, New Zealand White, rabbit, plasma, iv, 0.37 mg/kg, rutin, i.v., pure rutin 0.37 mg/kg, extract equivalent to 1.48 mg/kg of rutin, NCA, mean ± SD, n = 5, read-out: Vz): 0.084 ± 0.028 L/kg
concentration at 6 h ([1]; male, New Zealand White, rabbit, plasma, iv, 0.37 mg/kg, i.v., mean ± SEM, at last quantified time, read-out: rutin plasma level, lower end of quantified range): 105 ± 24 ng/mL
half-life ([1]; male, New Zealand White, rabbit, plasma, iv, rutin, i.v., pure rutin 0.37 mg/kg, extract equivalent to 1.48 mg/kg of rutin, NCA, mean ± SD, n = 5, read-out: t1/2 (terminal half-life) (converted)): 0.79 ± 0.381 h
k el ([1]; male, New Zealand White, rabbit, plasma, iv, rutin, i.v., pure rutin 0.37 mg/kg, extract equivalent to 1.48 mg/kg of rutin, NCA, mean ± SD, n = 5, read-out: λz (converted)): 0.000294 s⁻¹
MRT [1, 7]: 3.63 ± 0.163 h
clearance [1, 7]: 1.32 mL/min/kg
Cp^0 (plasma concentration at zero time) ([1]; rutin in plasma, i.v., pure rutin 0.37 mg/kg, extract equivalent to 1.48 mg/kg of rutin, NCA, mean ± SD, n = 5): 4960.02 ± 760.234 ng/mL
AUC0–∞/dose [1, 8]: 12.90 ± 2.214 h/L/kg
Cp^0/dose [1, 8]: 13.49 ± 2.068 L⁻¹ kg⁻¹
bioavailability ([2]; male, New Zealand White, rabbit, plasma, po, p.o. vs i.v., pure rutin 100 mg/kg, extract equivalent to 7.4 mg/kg of rutin, read-out: F (absolute bioavailability of rutin)): 0.6%
Vd/F ([2]; male, New Zealand White, rabbit, plasma, po, rutin, p.o., pure rutin 100 mg/kg, extract equivalent to 7.4 mg/kg of rutin, NCA, mean ± SD, n = 5, read-out: Vz/F): 59.1 ± 11.4 L/kg
k el ([2]; male, New Zealand White, rabbit, plasma, po, rutin, p.o., pure rutin 100 mg/kg, extract equivalent to 7.4 mg/kg of rutin, NCA, mean ± SD, n = 5, read-out: λz (converted)): 6.5e-05 s⁻¹
CL/F [2, 9]: 226 mL/min/kg
MRT [2, 9]: 11.8 ± 0.916 h
AUC(0-inf) [2, 10]: 7790 ± 2110 ng·h/mL
Cmax [2, 10]: 1170 ± 371 ng/mL
Tmax [2, 10]: 0.75 h
time of second peak of rutin plasma concentration (double peaks) ([2]; p.o., Cmax here for the extract): 4.0 h
time of first peak of rutin plasma concentration (double peaks) ([2]; p.o., Cmax here for the pure compound): 0.75 h
AUC0–∞/dose [2, 11]: 0.078 ± 0.021 h/L/kg
Cmax/dose [2, 11]: 0.012 ± 0.004 L⁻¹ kg⁻¹
clearance ([3]; New Zealand White, rabbit, plasma, intravenous, 0.37 mg/kg, popPK individual parameters, Cl = k × V, per animal, read-out: Cl, rabbit parameter (converted)): 3.13 mL/min
k12 (distribution rate constant compartment 1 to 2), population value ([3]; i.v., popPK): 3.666 h⁻¹
k21 (distribution rate constant compartment 2 to 1), population value ([3]; i.v., popPK, no extract covariate): 3.777 h⁻¹
Vd ([3]; male, New Zealand White, rabbit, plasma, iv, popPK, read-out: V (volume of distribution of first compartment), population value): 0.048 L/kg
k el ([3]; male, New Zealand White, rabbit, plasma, iv, popPK, read-out: k (first-order elimination rate constant), population value (converted)): 0.000534 s⁻¹
V, rabbit parameter ([3]; popPK individual parameters, per animal): 0.096 L
V, human parameter (experimental b) ([4]; 70 kg, b exponent from the data): 1.410 L
Cl, human parameter (theoretical b) ([4]; 70 kg, theoretical b 0.75): 2.323 L/h
V, human parameter (theoretical b) ([4]; 70 kg, theoretical b 1.0): 3.988 L
Cl, a coefficient of allometric scaling ([4]; Y = a × W^b, rats and rabbits): 0.096
Cl, b exponent of allometric scaling ([4]; Y = a × W^b, rats and rabbits): 0.9
V, a coefficient of allometric scaling ([4]; Y = a × W^b, rats and rabbits): 0.057
V, b exponent of allometric scaling ([4]; Y = a × W^b, rats and rabbits): 0.8
clearance ([4]; human, 70 kg, b exponent from the data, read-out: Cl, human parameter (experimental b) (converted)): 89.8 mL/min
Cl, rat parameter [5]: 0.031 L/h
V, rat parameter [5]: 0.024 L
Biopharmaceutical Classification System class [6]: Class IV
